Experimental findings from patent US12377083B2 (WUHAN LL SCIENCE AND TECHNOLOGY DEVELOPMENT CO., LTD., priority 2019, dated 2025) are described below.

Data set [1] is described as follows: In vitro metabolic stability, mouse liver microsomes. It is filed as in vitro ADME. To be noted: 1 mg/mL liver microsome protein, 37° C., read-out: Metabolism in mouse liver microsome T½ min. Here is the method: (§1) The in vitro metabolic stability of the compounds disclosed herein was determined through incubation of liver microsomes of various species. A proper amount of test compound was added into a liver microsome reaction system (1 mg/mL liver microsome protein, 25 U/mL glucose-6 phosphate dehydrogenase, 1 mM NADP, 6 mM D-glucose 6-phosphate and 5 mM MgCl2), and then the mixture was incubated in a water bath kettle at 37° C. to start reaction. At each time point, 100 μL of the reaction system was added into a centrifuge tube containing 400 μL of internal standard working solution (containing a 200 ng/mL solution of dexamethasone, diclofenac, tolbutamide and labetalol in acetonitrile) precooled at 0° C. so as to stop the reaction, and the mixture was then centrifuged at 10,000 g for 10 min at 4° C. The supernatant was collected for LC-MS assay so as to obtain the values of in vitro metabolic half-life of the test compounds in liver microsomes of various species.

Data set [2] concerns A2058 (human melanoma cells). In words: A2058 cell scratch (migration) assay with LPA. It is filed as cell-based. To be noted: 10 μM LPA, scratch area at 24 h.
Data set [3] can be described thus: In vitro metabolic stability, human liver microsomes. It is filed as in vitro ADME. To be noted: 1 mg/mL liver microsome protein, 37° C., read-out: Metabolism in human liver microsome T½ min. Here is the method: as §1
A short description of data set [4]: In vitro metabolic stability, rat liver microsomes. It is filed as in vitro ADME. The following applies: 1 mg/mL liver microsome protein, 37° C., read-out: Metabolism in rat liver microsome T½ min. Here is the method: as §1
Data set [5] in a line: In vitro cytotoxicity assay in HepG2 cells, CCK-8 method. The following applies: human. It is filed as cell-based. As to the method: In vitro cytotoxicity assay for the compounds disclosed herein was performed in HepG2 cells using the CCK-8 method. HepG2 cells (Beina Bio) in the logarithmic growth phase were collected, the concentration of cell suspension was adjusted, and then the cells were plated on a 96-well cell culture plate at 50,000 cells/well. The cells were then incubated overnight in a cell incubator (5% CO2, 37° C.), and after 80-90% cell confluence was achieved, test compounds or vehicle (DMSO) at various concentration gradients were added after medium change. The resulting mixture was incubated in the cell incubator (5% CO2, 37° C.) for 48 h. After the treatment, the medium in the plate was discarded. The plate was washed twice with PBS, added with CCK-8 working solution (Beyotime) at 100 μL per well, and then incubated at 37° C. for 1.5 h away from the light. Absorbance at OD450 nm was measured for each well on a microplate reader, and CC50 value of each compound was analyzed and calculated.

Data set [6] concerns the target hLPAR1 (human lysophosphatidic acid receptor 1) (Homo sapiens, UniProt Q92633). In words: FLIPR assay of intracellular calcium increase induced by activation of hLPAR1 expressed in CHO-K1 cells. It is filed as cell-based. The following applies: CHO-K1 cells expressing hLPAR1, agonist oleoyl-L-α-lysophosphatidic acid 1 μM; read-out: LPAR1 IC50. In a few lines: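 CHO-K1 cells expressing hLPAR1 were loaded with Fluo-4 AM for 1.0 h at 37° C, then preincubated 30 min at room temperature with compound. Oleoyl-LPA was added at 1 μM final, and calcium fluorescence was recorded by FLIPR for 2 min at 1-s intervals to assess antagonism.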

hLPAR1 (human lysophosphatidic acid receptor 1), sequence (Q92633 whole entry): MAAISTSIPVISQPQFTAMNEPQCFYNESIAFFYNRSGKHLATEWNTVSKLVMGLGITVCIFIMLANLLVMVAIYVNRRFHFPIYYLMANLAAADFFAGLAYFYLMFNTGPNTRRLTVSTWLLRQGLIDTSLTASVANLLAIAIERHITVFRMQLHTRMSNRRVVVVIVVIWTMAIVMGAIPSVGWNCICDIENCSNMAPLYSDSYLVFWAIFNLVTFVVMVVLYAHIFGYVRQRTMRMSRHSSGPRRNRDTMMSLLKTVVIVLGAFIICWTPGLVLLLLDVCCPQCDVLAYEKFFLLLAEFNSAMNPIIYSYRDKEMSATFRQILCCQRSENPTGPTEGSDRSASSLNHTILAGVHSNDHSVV

On to `CN(C(=O)OCc1c(-c2ccc(O[C@H]3CCC[C@H](C(=O)O)C3)cc2)cnn1C)C1CCCC1` (racemic) [Compound 11, (+/−)-(1S,3S)-3-(4-(5-(((cyclopentyl(methyl)carbamoyl)oxy)methyl)-1-methyl-1H-pyrazol-4-yl)phenoxy)cyclohexane-1-carboxylate], for which the half-life in data set [1], in data set [3] and in data set [4] was > 30 min each time. The “Cell migration inhibition rate (%)” value in data set [2] was “A (A: 50-70%)”. Besides, the CC50 at 48 h in data set [5] was > 200 µM.

With `Cc1nsc(-c2ccc(O[C@H]3CCC[C@H](C(=O)O)C3)cc2)c1COC(=O)N(C)C1CCCC1` (racemic) [Compound 28, (+/−)-(1S,3S)-3-(4-(4-(((cyclopentyl(methyl)carbamoyl)oxy)methyl)-3-methylisothiazol-5-yl)phenoxy)cyclohexane-1-carboxylic Acid], the values for the half-life in data set [1], in data set [3] and in data set [4] were > 30 min, > 30 min and < 30 min, respectively. In addition, in data set [2], the “Cell migration inhibition rate (%)” value was “A (A: 50-70%)”. For the same compound, the IC50 in data set [6] was < 50 nM. Also, the CC50 at 48 h in data set [5] was > 200 µM.

For the compound `Cc1noc(-c2ccc(O[C@H]3CCC[C@H](C(=O)O)C3)cc2)c1COC(=O)N(C)C1CCCC1` (racemic) [Compound 4, (+/−)-(1S,3S)-3-(4-(4-(((cyclopentyl(methyl)carbamoyl)oxy)methyl)-3-methylisoxazol-5-yl)phenoxy)cyclohexane-1-carboxylic Acid], the half-life in data set [1] was found to be 167 min; in data set [3], 131 min; in data set [4], 13.1 min. In data set [5], the CC50 at 48 h is > 200 µM.

For `Cc1nc(-c2cnn(C)c2COC(=O)N(C)C2CCCC2)cnc1O[C@H]1CCC[C@H](C(=O)O)C1` (racemic) [Compound 66], the half-life in data set [1] is 703 min; in data set [3], 492 min; in data set [4], 93.4 min. Further, in data set [2], the “Cell migration inhibition rate (%)” value is recorded as “B (B: 30-50%)”. The IC50 in data set [6] was < 50 nM.

In the case of `Cc1nc(-c2cnn(C)c2COC(=O)N(C)C2CCCC2)ccc1O[C@H]1CCC[C@H](C(=O)O)C1` (racemic) [Compound 16, (+/−)-(1S,3S)-3-((6-(5-(((cyclopentyl(methyl)carbamoyl)oxy)methyl)-1-methyl-1H-pyrazol-4-yl)-2-methylpyridin-3-yl)oxy)cyclohexane-1-carboxylic Acid], in data set [2], the “Cell migration inhibition rate (%)” value is “A (A: 50-70%)”. Besides, the half-life in data set [3] amounted to 619 min; in data set [4] it was 109 min. In addition, in data set [6], the IC50 is < 50 nM. Besides, in data set [5], the CC50 at 48 h was > 200 µM.

On to `Cc1nc(-c2ncn(C)c2COC(=O)N(C)C2CCCC2)ccc1O[C@H]1CCC[C@H](C(=O)O)C1` (racemic) [Compound 17, (+/−)-(1S,3S)-3-((6-(5-(((cyclopentyl(methyl)carbamoyl)oxy)methyl)-1-methyl-1H-imidazol-4-yl)-2-methylpyridin-3-yl)oxy)cyclohexane-1-carboxylic Acid], for which the “Cell migration inhibition rate (%)” value in data set [2] is “C (C: 0-30%)”. For the same compound, in data set [6], the IC50 was in the range of 50 to 300 nM. Besides, the CC50 at 48 h in data set [5] is > 200 µM.

As to `Cc1noc(-c2ccc(O[C@H]3CCC[C@H](C(=O)O)C3)c(C(F)(F)F)n2)c1COC(=O)N(C)C1CCCC1` [Compound 37], the “Cell migration inhibition rate (%)” value in data set [2] is recorded as “A (A: 50-70%)”. Further, in data set [6], the IC50 was < 50 nM. In data set [5], the CC50 at 48 h is > 200 µM.

Take `Cc1nc(-n2cnc(C)c2COC(=O)N(C)C2CCCC2)ccc1O[C@H]1CCC[C@H](C(=O)O)C1` (racemic) [Compound 54]: the “Cell migration inhibition rate (%)” value in data set [2] is “B (B: 30-50%)”. Moreover, in data set [6], the IC50 was < 50 nM. In data set [5], the CC50 at 48 h was > 200 µM.

In the case of `Cc1ccn(-c2ccc(O[C@H]3CCC[C@H](C(=O)O)C3)cc2)c1COC(=O)N(C)C1CCCC1` (racemic) [Compound 31], in data set [2], the “Cell migration inhibition rate (%)” value was “B (B: 30-50%)”. Further, the IC50 in data set [6] is < 50 nM. In addition, in data set [5], the CC50 at 48 h was > 200 µM.

`CN(Cc1ccccc1)C(=O)OCc1c(-c2ccc(O[C@H]3CCC[C@H](C(=O)O)C3)cc2)ncn1C` (racemic) [Compound 24]: the “Cell migration inhibition rate (%)” value in data set [2] is on record as “C (C: 0-30%)”. Besides, the IC50 in data set [6] is 300 to 10000 nM. Besides, in data set [5], the 50% cytotoxic concentration (CC50) at 48 h is > 200 µM.

Take `Cc1nc(-c2snc(C)c2COC(=O)N(C)C2CCCC2)ccc1O[C@H]1CCC[C@H](C(=O)O)C1` (racemic) [Compound 40]: the “Cell migration inhibition rate (%)” value in data set [2] was “A (A: 50-70%)”. The IC50 in data set [6] was < 50 nM. Besides, the CC50 at 48 h in data set [5] is > 200 µM.

Turning to `Cc1nc(-c2ccn(C)c2COC(=O)N(C)C2CCCC2)ccc1O[C@H]1CCC[C@H](C(=O)O)C1` (racemic) [Compound 55], in data set [2], the “Cell migration inhibition rate (%)” value is recorded as “A (A: 50-70%)”. For the same compound, the IC50 in data set [6] was < 50 nM. In addition, the CC50 at 48 h in data set [5] is > 200 µM.

`Cc1nc(-c2cnnc(C)c2COC(=O)N(C)C2CCCC2)ccc1O[C@H]1CCC[C@H](C(=O)O)C1` (racemic) [Compound 52]: the “Cell migration inhibition rate (%)” value in data set [2] is recorded as “B (B: 30-50%)”. In data set [6], the IC50 is < 50 nM. Moreover, in data set [5], the CC50 at 48 h is > 200 µM.

As to `Cc1coc(-c2ccc(O[C@H]3CCC[C@H](C(=O)O)C3)c(C)n2)c1COC(=O)N(C)C1CCCC1` (racemic) [Compound 45], in data set [2], the “Cell migration inhibition rate (%)” value is reported as “A (A: 50-70%)”. For the same compound, the IC50 in data set [6] is < 50 nM. For the same compound, in data set [5], the CC50 at 48 h is > 200 µM.

In the case of `CN(Cc1ccccc1)C(=O)OCc1nc2cc(O[C@H]3CCC[C@H](C(=O)O)C3)ccc2n1C` (racemic) [Compound 22], the “Cell migration inhibition rate (%)” value in data set [2] is on record as “C (C: 0-30%)”. For the same compound, the IC50 in data set [6] lay within 300 to 10000 nM. Moreover, the CC50 at 48 h in data set [5] was > 200 µM.

Regarding `CN(Cc1ccccc1)C(=O)OCc1c(-c2ccc(O[C@H]3CCC[C@H](C(=O)O)C3)cc2)cnn1C` (racemic) [Compound 2, (+/−)-(1S,3S)-3-(4-(5-(((benzyl(methyl)carbamoyl)oxy)methyl)-1-methyl-1H-pyrazol-4-yl)phenoxy)cyclohexane-1-carboxylic Acid], the “Cell migration inhibition rate (%)” value in data set [2] is listed as “C (C: 0-30%)”. Further, the IC50 in data set [6] fell in the range of 300 to 10000 nM. Further, the CC50 at 48 h in data set [5] is > 200 µM.

For the compound `Cc1nc(-c2csc(C)c2COC(=O)N(C)C2CCCC2)ccc1O[C@H]1CCC[C@H](C(=O)O)C1` (racemic) [Compound 43], the “Cell migration inhibition rate (%)” value in data set [2] was “A (A: 50-70%)”. For the same compound, the IC50 in data set [6] is < 50 nM. Also, the CC50 at 48 h in data set [5] was > 200 µM.

Regarding `Cc1nc(-c2ncoc2COC(=O)N(C)C2CCCC2)ccc1O[C@H]1CCC[C@H](C(=O)O)C1` (racemic) [Compound 26], the “Cell migration inhibition rate (%)” value in data set [2] is listed as “C (C: 0-30%)”. The IC50 in data set [6] lay in the range of 300 to 10000 nM. Further, the CC50 at 48 h in data set [5] is > 200 µM.

As for `Cc1nc(-c2noc(C)c2COC(=O)N(C)C2CCCC2)ccc1O[C@H]1CCC[C@H](C(=O)O)C1` (racemic) [Compound 38], the “Cell migration inhibition rate (%)” value in data set [2] is reported as “A (A: 50-70%)”. In addition, the IC50 in data set [6] was < 50 nM. The CC50 at 48 h in data set [5] was > 200 µM.

For the compound `Cc1nc(COC(=O)N(C)C2CCCC2)c(-c2ccc(O[C@H]3CCC[C@H](C(=O)O)C3)cc2)s1` (racemic) [Compound 10, (+/−)-(1S,3S)-3-(4-(4-(((cyclopentyl(methyl)carbamoyl)oxy)methyl)-2-methylthiazol-5-yl)phenoxy)cyclohexane-1-carboxylic Acid], the “Cell migration inhibition rate (%)” value in data set [2] is “C (C: 0-30%)”. Moreover, the IC50 in data set [6] lay in the range of 300 to 10000 nM. Further, the CC50 at 48 h in data set [5] is > 200 µM.

`Cc1nc(-c2c(C(F)(F)F)nn(C)c2COC(=O)N(C)C2CCCC2)ccc1O[C@H]1CCC[C@H](C(=O)O)C1` (racemic) [Compound 33]: the “Cell migration inhibition rate (%)” value in data set [2] is “B (B: 30-50%)”. Further, the IC50 in data set [6] was < 50 nM. Also, in data set [5], the cytotoxic concentration (CC50) at 48 h was > 200 µM.

Consider `COc1nc(-c2cnn(C)c2COC(=O)N(C)C2CCCC2)ccc1O[C@H]1CCC[C@H](C(=O)O)C1` (racemic) [Compound 59, (+/−)-(1S,3S)-3-((6-(5-(((cyclopentyl(methyl)carbamoyl)oxy)methyl)-1-methyl-1H-pyrazol-4-yl)-2-methoxypyridin-3-yl)oxy)cyclohexane-1-carboxylic Acid], for which the “Cell migration inhibition rate (%)” value in data set [2] is listed as “B (B: 30-50%)”. Also, the IC50 in data set [6] was < 50 nM. Also, in data set [5], the CC50 at 48 h is > 200 µM.
